Data taken from patent publication US20250313563A1, “GLYCOGEN SYNTHASE KINASE 3 INHIBITORS AND USES THEREOF” (The Broad Institute, Inc., priority 2022, published 2025).
Where two headings read alike, the source gives them in different places.

What was measured:
[1] = molecular target: GSK3α (GST-full length GSK3α) (Homo sapiens (Human), UniProt P49840); assay: GSK3α TR-FRET kinase assay; assay type: biochemical
Outline: (§1)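 Compound was preincubated 30 min with 1 nM GST-GSK3 enzyme. Reaction ran 100 min at ambient temperature in Tris pH 7.5/MgCl2 with 200 nM biotinylated pS645-glycogen synthase 631-650 peptide and ATP (4 μM GSK3α, 2 μM GSK3b, or 1 mM). The EDTA-stopped reaction was read by TR-FRET (Tb-anti-pSer641/streptavidin-d2), and IC50s were fitted.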

[2] = molecular target: GSK3b (GST-full length GSK3b) (Homo sapiens (Human), UniProt P49841); assay: GSK3b TR-FRET kinase assay; assay type: biochemical
Chain of GSK3b (GST-full length GSK3b) (P49841 whole entry): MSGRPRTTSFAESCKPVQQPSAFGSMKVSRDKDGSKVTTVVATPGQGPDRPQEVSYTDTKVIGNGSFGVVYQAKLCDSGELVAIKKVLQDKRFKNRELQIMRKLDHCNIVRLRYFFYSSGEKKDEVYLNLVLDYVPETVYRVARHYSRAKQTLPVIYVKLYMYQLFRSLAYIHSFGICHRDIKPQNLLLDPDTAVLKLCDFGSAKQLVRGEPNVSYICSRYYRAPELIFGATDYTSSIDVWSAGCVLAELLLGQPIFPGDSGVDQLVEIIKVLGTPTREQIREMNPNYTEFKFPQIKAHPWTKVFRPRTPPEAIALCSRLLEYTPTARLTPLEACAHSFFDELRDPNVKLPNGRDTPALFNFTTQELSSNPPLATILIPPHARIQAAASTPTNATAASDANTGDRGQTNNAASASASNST
Outline: as §1

[3] = 1 nM GSK3α, 4 μM ATP, 30 minute preincubation, Table 16, read-out: GSK3-A TR-FRET BIOCHEMICAL (TR-FRET)
[4] = 1 nM GSK3b, 2 μM ATP, 30 minute preincubation, Table 16, read-out: GSK3-B TR-FRET BIOCHEMICAL (TR-FRET)
[5] = 1 nM GSK3α, 4 μM ATP, 30 minute preincubation, geometric mean, read-out: GSK3-A TR-FRET BIOCHEMICAL (TR-FRET), GMean, IC50
[6] = 1 nM GSK3b, 2 μM ATP, 30 minute preincubation, geometric mean, read-out: GSK3-B TR-FRET BIOCHEMICAL (TR-FRET), GMean, IC50
[7] = 1 nM GSK3α, 4 μM ATP, 30 minute preincubation, read-out: GSK3-A TR-FRET BIOCHEMICAL (TR-FRET), IC50
[8] = 1 nM GSK3b, 2 μM ATP, 30 minute preincubation, read-out: GSK3-B TR-FRET BIOCHEMICAL (TR-FRET), IC50
[9] = read-out: GSK3-A (TR-FRET 1 mM ATP), GMean, IC50, 1 mM ATP, geometric mean
[10] = read-out: GSK3-B (TR-FRET 1 mM ATP), GMean, IC50, 1 mM ATP, geometric mean

Chain of GSK3α (GST-full length GSK3α) (P49840 whole entry): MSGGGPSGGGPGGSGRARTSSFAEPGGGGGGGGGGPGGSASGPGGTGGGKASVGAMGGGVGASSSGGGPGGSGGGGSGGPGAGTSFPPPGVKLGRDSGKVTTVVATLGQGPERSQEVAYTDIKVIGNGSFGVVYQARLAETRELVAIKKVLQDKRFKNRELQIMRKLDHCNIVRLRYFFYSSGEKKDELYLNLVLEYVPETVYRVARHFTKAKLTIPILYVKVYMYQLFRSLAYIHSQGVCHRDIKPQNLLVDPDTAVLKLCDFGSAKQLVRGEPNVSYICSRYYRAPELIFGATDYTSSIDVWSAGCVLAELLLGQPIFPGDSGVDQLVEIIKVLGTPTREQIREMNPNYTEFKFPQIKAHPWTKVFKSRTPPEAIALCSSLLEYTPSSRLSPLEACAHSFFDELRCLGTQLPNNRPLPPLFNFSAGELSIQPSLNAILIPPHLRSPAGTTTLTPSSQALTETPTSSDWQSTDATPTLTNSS

Row | SMILES | IC50 [1, 5] [nM] | IC50 [2, 6] [nM] | other results
1 | CC[C@@]1(c2cccc(-c3ccnc(CCO)c3)c2)C2=C(CC(C)(C)CC2=O)Nc2n[nH]cc21 [Compound 947816] |  |  | IC50 [1, 3]: 1000 to 5000 nM; IC50 [2, 4]: > 5000 nM
2 | CC[C@@]1(c2cccc(-c3cnn4c3CCCC4)c2)C2=C(CC(C)(C)NC2=O)Nc2n[nH]c(C)c21 [Compound 947817] | ≤ 100 | ≤ 100 | 
3 | CCC1(c2cccc(Oc3ncccn3)c2)C2=C(CC(C)(C)CC2=O)Nc2n[nH]cc21 (stereo not shown) [Compound 947818] |  |  | IC50 [1, 3]: 100 to 1000 nM; IC50 [2, 4]: > 5000 nM
4 | CC[C@]1(c2cccc(-c3cncn3C)c2)C2=C(CC(C)(C)NC2=O)Nc2n[nH]cc21 [Compound 947820] | 100 to 1000 | 100 to 1000 | 
5 | CC[C@@]1(c2cccc(-c3ccncc3F)c2)C2=C(CC(C)(C)NC2=O)Nc2n[nH]c(C)c21 [Compound 947821] | ≤ 100 | ≤ 100 | 
6 | CC[C@]1(c2cccc(-c3cc(C)ncc3F)c2)C2=C(CC(C)(C)NC2=O)Nc2n[nH]cc21 [Compound 947822] | 100 to 1000 | > 5000 | 
7 | CCC1(c2cccc(-c3cnnn3C)c2)C2=C(CC(C)(C)CC2=O)Nc2n[nH]cc21 (stereo not shown) [Compound 947824] |  |  | IC50 [1, 3]: 100 to 1000 nM; IC50 [2, 4]: 1000 to 5000 nM
8 | CC[C@]1(c2cccc(N(C)c3ncccn3)c2)C2=C(CC(C)(C)NC2=O)Nc2n[nH]cc21 [Compound 947826] | ≤ 100 | ≤ 100 | 
9 | CC1(C)CC2=C(C(=O)N1)C1(CCN(S(=O)(=O)c3cnn(C(C)(C)C)c3)CC1)c1c[nH]nc1N2 [Compound 947835] | ≤ 100 | 100 to 1000 | IC50 [1, 7]: ≤ 100 nM; IC50 [2, 8]: 100 to 1000 nM
10 | CCn1ccc(S(=O)(=O)N2CCC3(CC2)C2=C(CC(C)(C)NC2=O)Nc2n[nH]cc23)n1 [Compound 947836] | ≤ 100 | 100 to 1000 | IC50 [1, 7]: ≤ 100 nM; IC50 [2, 8]: 100 to 1000 nM
11 | CCc1ncc(S(=O)(=O)N2CCC3(CC2)C2=C(CC(C)(C)NC2=O)Nc2n[nH]cc23)s1 [Compound 947837] | ≤ 100 | ≤ 100 | IC50 [1, 7]: ≤ 100 nM; IC50 [2, 8]: ≤ 100 nM
12 | CCC1(c2cccc(-c3ccnc(C)c3)c2)C2=C(CC(C)(C)NC2=O)Nc2n[nH]c(C(F)(F)F)c21 (stereo not shown) [Compound 947858] | ≤ 100 | ≤ 100 | 
13 | CCC1(c2cccc(S(=O)(=O)C3CC3)c2)C2=C(CC(C)(C)NC2=O)Nc2n[nH]c(C(F)(F)F)c21 (stereo not shown) [Compound 947859] | ≤ 100 | ≤ 100 | IC50 [1, 9]: ≤ 100 nM; IC50 [2, 10]: ≤ 100 nM
14 | CCC1(c2cccc(N3CCCC3)c2)C2=C(CC(C)(C)NC2=O)Nc2n[nH]c(C(F)(F)F)c21 (stereo not shown) [Compound 947860] | ≤ 100 | ≤ 100 | IC50 [1, 9]: ≤ 100 nM; IC50 [2, 10]: 100 to 1000 nM
15 | CCC1(c2cccc(-c3ccnc4c3CCC4)c2)C2=C(CC(C)(C)NC2=O)Nc2n[nH]c(C(F)(F)F)c21 (stereo not shown) [Compound 947862] | ≤ 100 | ≤ 100 | IC50 [1, 9]: ≤ 100 nM; IC50 [2, 10]: 100 to 1000 nM
16 | CCC1(c2cccc(N3CCOCC3)c2)C2=C(CC(C)(C)NC2=O)Nc2n[nH]c(C(F)(F)F)c21 (stereo not shown) [Compound 947863] | ≤ 100 | ≤ 100 | 
17 | CCC1(c2cccc(C(F)F)c2)C2=C(CC(C)(C)NC2=O)Nc2n[nH]cc21 (stereo not shown) [Compound 947864] | ≤ 100 | 100 to 1000 | 
18 | CCC1(c2cccc(-c3ccncc3F)c2)C2=C(CC(C)(C)NC2=O)Nc2n[nH]c(C(F)(F)F)c21 (stereo not shown) [Compound 947866] | ≤ 100 | ≤ 100 | 
19 | CCC1(c2cccc(OC(C)C)c2)C2=C(CC(C)(C)CC2=O)Nc2[nH]nc(C(F)(F)F)c21 (stereo not shown) [Compound 947867] |  |  | IC50 [1, 3]: ≤ 100 nM; IC50 [1, 9]: ≤ 100 nM; IC50 [2, 4]: ≤ 100 nM; IC50 [2, 10]: ≤ 100 nM
20 | CC[C@]1(c2cccc(-c3ccncc3F)c2)C2=C(CC(C)(C)NC2=O)Nc2n[nH]cc21 [Compound 947869] | ≤ 100 | ≤ 100 | IC50 [1, 9]: ≤ 100 nM; IC50 [2, 10]: 1000 to 5000 nM
21 | CCC1(c2cccc(S(=O)(=O)C(C)C)c2)C2=C(CC(C)(C)NC2=O)Nc2[nH]nc(C)c21 (stereo not shown) [Compound 947870] | ≤ 100 | 100 to 1000 | 
22 | CC[C@]1(c2cccc(-c3cnn(C)c3)c2)C2=C(CC(C)(C)NC2=O)Nc2n[nH]c(C(F)(F)F)c21 [Compound 947871] | ≤ 100 | 100 to 1000 | 
23 | CC[C@@]1(c2cccc(OC(C)C)c2)C2=C(CC(C)(C)CC2=O)Nc2n[nH]c(C(F)(F)F)c21 [Compound 947872] |  |  | IC50 [1, 3]: 100 to 1000 nM; IC50 [2, 4]: 1000 to 5000 nM
24 | CCC1(c2cccc(-c3ccncc3F)c2)C2=C(CC(C)(C)NC2=O)Nc2n[nH]cc21 (stereo not shown) [Compound 947874] | 100 to 1000 | 1000 to 5000 | 
25 | CCC1(c2cccc(S(=O)(=O)C(C)C)c2)C2=C(CC(C)(C)NC2=O)Nc2n[nH]c(C)c21 (stereo not shown) [Compound 947876] | ≤ 100 | ≤ 100 | IC50 [1, 9]: ≤ 100 nM; IC50 [2, 10]: 100 to 1000 nM

Row | SMILES | IC50 [1, 5] [nM] | IC50 [2, 6] [nM] | other results
26 | Cc1csc(S(=O)(=O)N2CCC3(CC2)C2=C(CC(C)(C)CC2=O)Nc2n[nH]cc23)n1 [Compound 947897] |  |  | IC50 [1, 3]: ≤ 100 nM; IC50 [2, 4]: ≤ 100 nM
27 | Cn1cc(S(=O)(=O)N2CCC3(CC2)C2=C(CC(C)(C)CC2=O)Nc2n[nH]cc23)nn1 [Compound 947898] |  |  | IC50 [1, 3]: ≤ 100 nM; IC50 [2, 4]: 100 to 1000 nM
28 | Cc1ncc(S(=O)(=O)N2CCC3(CC2)C2=C(CC(C)(C)CC2=O)Nc2n[nH]cc23)s1 [Compound 947899] |  |  | IC50 [1, 3]: ≤ 100 nM; IC50 [2, 4]: ≤ 100 nM
29 | CC1(C)CC(=O)C2=C(C1)Nc1n[nH]cc1C21CCN(S(=O)(=O)c2ccc3c(c2)OCCO3)CC1 [Compound 947900] |  |  | IC50 [1, 3]: ≤ 100 nM; IC50 [2, 4]: ≤ 100 nM
30 | CC1(C)CC(=O)C2=C(C1)Nc1n[nH]cc1C21CCN(S(=O)(=O)c2cccc3ccncc23)CC1 [Compound 947901] |  |  | IC50 [1, 3]: ≤ 100 nM; IC50 [2, 4]: ≤ 100 nM
31 | CC1(C)CC(=O)C2=C(C1)Nc1n[nH]cc1C21CCN(S(=O)(=O)c2ccc(C(F)(F)F)cn2)CC1 [Compound 947902] |  |  | IC50 [1, 3]: ≤ 100 nM; IC50 [2, 4]: ≤ 100 nM
32 | CC1(C)CC(=O)C2=C(C1)Nc1n[nH]cc1C21CCN(S(=O)(=O)c2cnn(CCF)c2)CC1 [Compound 947903] |  |  | IC50 [1, 3]: ≤ 100 nM; IC50 [2, 4]: ≤ 100 nM
33 | CC1(C)CC(=O)C2=C(C1)Nc1n[nH]cc1C21CCN(S(=O)(=O)c2cnn(-c3ccccc3)c2)CC1 [Compound 947904] |  |  | IC50 [1, 3]: ≤ 100 nM; IC50 [2, 4]: ≤ 100 nM
34 | CCC1(c2cccc(-c3ccnn3C)c2)C2=C(CC(C)(COC)NC2=O)Nc2n[nH]cc21 (stereo not shown) [Compound 947905] | ≤ 100 | 100 to 1000 | 
35 | CCC1(c2cccc(-c3ccnn3C)c2)C2=C(CC(C)(COC)NC2=O)Nc2n[nH]cc21 (stereo not shown) [Compound 947907] | 1000 to 5000 | > 5000 | 
36 | CC[C@@]1(c2cccc(-c3ccnn3C)c2)C2=C(C[C@@](C)(COC)NC2=O)Nc2n[nH]cc21 [Compound 947908] | 1000 to 5000 | > 5000 | 
37 | CC[C@]1(c2cccc(-c3ccncc3C)c2)C2=C(C[C@@]3(CCCOC3)NC2=O)Nc2n[nH]cc21 [Compound 947910] | ≤ 100 | ≤ 100 | 
38 | CC[C@@]1(c2cccc(-c3ccncc3C)c2)C2=C(C[C@@]3(CCCOC3)NC2=O)Nc2n[nH]cc21 [Compound 947911] | ≤ 100 | ≤ 100 | 
39 | CCC1(c2cccc(-c3ccnn3C)c2)C2=C(CC3(CCOC3)NC2=O)Nc2n[nH]cc21 (stereo not shown) [Compound 948014] | 100 to 1000 | > 5000 | 
40 | CCC1(c2cccc(-c3ccnn3C)c2)C2=C(CC3(CCOC3)NC2=O)Nc2n[nH]cc21 (stereo not shown) [Compound 948016] | > 5000 | > 5000 | 
41 | CC[C@]1(c2cccc(-c3ccnn3C)c2)C2=C(CC3(CCCC3)NC2=O)Nc2n[nH]cc21 [Compound 948018] | ≤ 100 | ≤ 100 | 
42 | CC[C@@]1(c2cccc(-c3ccnn3C)c2)C2=C(CC3(CCCC3)NC2=O)Nc2n[nH]cc21 [Compound 948019] | 1000 to 5000 | > 5000 | 
43 | CCC1(c2cccc(-c3ccncc3Cl)c2)C2=C(CC(C)(C)NC2=O)Nc2n[nH]cc21 (stereo not shown) [Compound 948020] | 100 to 1000 | 100 to 1000 | 
44 | CCC1(c2cccc(-c3ccncc3C)c2)C2=C(CC3(CCCC3)NC2=O)Nc2n[nH]cc21 (stereo not shown) [Compound 948021] | 100 to 1000 | > 5000 | 
45 | CC1(C)CC(=O)C2=C(C1)Nc1n[nH]cc1[C@]21COC2(CN(C(=O)Cc3ccccc3)C2)C1 [Compound 948036] |  |  | IC50 [1, 7]: 100 to 1000 nM; IC50 [2, 8]: 100 to 1000 nM
46 | CC1(C)CC(=O)C2=C(C1)Nc1n[nH]cc1[C@@]21COC2(CN(C(=O)Cc3ccccc3)C2)C1 [Compound 948037] |  |  | IC50 [1, 7]: ≤ 100 nM; IC50 [1, 9]: ≤ 100 nM; IC50 [2, 8]: ≤ 100 nM; IC50 [2, 10]: ≤ 100 nM
47 | Cc1ccc(C(=O)N2CC3(C2)CC2(CO3)C3=C(CC(C)(C)CC3=O)Nc3n[nH]cc32)cc1C (stereo not shown) [Compound 948038] |  |  | IC50 [1, 9]: ≤ 100 nM; IC50 [2, 10]: 100 to 1000 nM
48 | Cc1ccc(C(=O)N2CC3(C2)C[C@]2(CO3)C3=C(CC(C)(C)CC3=O)Nc3n[nH]cc32)cc1C [Compound 948039] |  |  | IC50 [1, 7]: 100 to 1000 nM; IC50 [2, 8]: 1000 to 5000 nM
49 | CC(=O)N1CCC2(C1)CC1(CO2)C2=C(CC(C)(C)CC2=O)Nc2n[nH]cc21 (stereo not shown) [Compound 948040] |  |  | IC50 [1, 7]: ≤ 100 nM; IC50 [2, 8]: 100 to 1000 nM
